Here are results for 1 compound from publication PMC3210913 (Psychopharmacology, 2011).

The assay concerns serotonin 5-HT1A receptor. Put plainly: in vivo PET displacement of [carbonyl-11C]WAY-100635. Details: species or system Macaca fascicularis. The settings on record: 300 µg/kg i.v. cariprazine, raphe nuclei, ketamine/xylazine anaesthesia.
Chain of serotonin 5-HT1A receptor (UPI0032B04AFA 1-422): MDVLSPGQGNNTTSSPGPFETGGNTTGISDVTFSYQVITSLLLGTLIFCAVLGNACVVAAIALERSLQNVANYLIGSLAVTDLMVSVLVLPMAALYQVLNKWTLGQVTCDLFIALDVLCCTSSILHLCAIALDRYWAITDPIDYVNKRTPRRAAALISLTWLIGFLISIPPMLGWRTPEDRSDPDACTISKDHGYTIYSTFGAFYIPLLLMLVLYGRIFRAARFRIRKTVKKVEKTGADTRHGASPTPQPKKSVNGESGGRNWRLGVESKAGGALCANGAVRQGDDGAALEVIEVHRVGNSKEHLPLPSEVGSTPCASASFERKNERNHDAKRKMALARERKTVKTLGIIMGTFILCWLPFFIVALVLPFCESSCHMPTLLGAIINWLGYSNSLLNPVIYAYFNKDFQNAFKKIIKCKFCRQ

Turning to `CN(C)C(=O)N[C@H]1CC[C@H](CCN2CCN(c3cccc(Cl)c3Cl)CC2)CC1` [cariprazine], the “Receptor occupancy (%) / Cariprazine (μg/kg) / 300” value is 30%.
